Like-named read-outs stand apart in the source and are kept apart here.
What was measured:
[1] = cytotoxicity to cultured tumor cell line K562; settings: human, k562 cells, Suppression
Procedure: (§1) Cytotoxicity to various human tumor cell lines was examined as follows:
(§2) Cells of human cell lines, K562, MOLT4, U937 and HL60 were respectively suspended to the concentration of 4×10^5 cells/ml in the RPMI1640 culture medium supplemented with 20% FCS. Fifty μl of each suspension was added to each well of a 96-well microtest plate to which 50 μl of the test solution had been added. After culturing the suspension at 37° C. in an atmosphere of 5% carbon dioxide for 72 hours, the absorbancy at 570 nm was measured in the same way as with the colorimetry using MTT in Experiment Example 1, and the percent suppression was calculated by the following formula, which was used as an index of cytotoxicity.

K562 = test: cytotoxicity to cultured tumor cell line K562
Procedure: as §1, §2

[2] = cytotoxicity to cultured tumor cell line HL60; settings: human, hl60 cells, Suppression
Procedure: as §1, §2

HL60 = test: cytotoxicity to cultured tumor cell line HL60
Procedure: as §1, §2

[3] = system: human allogenic MLR (human peripheral blood lymphocytes); test: human allogenic MLR-suppressive activity, 3H-thymidine uptake; format: cell-based
Procedure: The human allogenic MLR-suppressive activity was assayed as follows:
Human peripheral blood lymphocytes obtained by Ficoll-Paque density gradient centrifugation of normal human peripheral blood were suspended in the RPMI1640 culture medium supplemented with 10% FCS, placed in a plastic dish, and cultured in an atmosphere of 5% carbon dioxide and 95% air at 37° C. for 2 hours. After termination of culture, the supernatant after gentle pipetting was collected and centrifuged (1000 rpm, for 5 minutes) to obtain plastic-nonadherent cells. The plastic-nonadherent cells were allowed to pass through a nylon-wool column to give nylon-nonadherent cells, and the concentration of the cell suspension was adjusted to 4×10^6 cells/ml by using the RPMI1640 culture medium supplemented with 10% FCS, and used as the responder cell suspension.
The plastic-adherent cells were removed from the plastic dish by vigorous pipetting after addition of phosphate buffered saline (PBS) supplemented with 5% FCS and 0.02% disodium ethylenediaminetetraacetic acid (EDTA). The plastic-adherent cells were treated with 40 μg/ml of mitomycin C at 37° C. for 60 minutes, washed three times, and suspended to the concentration of 4×10^6 cells/ml in the RPMI1640 culture medium supplemented with 10% FCS. The resultant suspension was used as the stimulator cell suspension.
After termination of culture, 37 KBq/well of ^3 H-thymidine was added, and after 18 hours of culture, the cells were harvested by a cell-harvester. The radioactivity incorporated into the cells was measured by a liquid scintillation counter, which was used as an index of blastogenic response of lymphocytes in human allogenic MLR. The suppression of human allogenic MLR was evaluated by calculating the percent suppression by the following formula. [formula]

[4] = system: IL-2 production in PHA-stimulated mouse spleen cells; test: suppression of IL-2 production in PHA-stimulated mouse spleen cells; format: cell-based
Procedure: The suppression of IL-2 and IL-3 production in the mitogen-stimulated mouse spleen cells was examined as follows:
The spleen was resected from 5- to 8-week-old male C3H/HeN mice, and a single cell suspension of spleen cells was prepared by using the RPMI1640 culture medium. After hemolytic treatment, the concentration of the suspension was adjusted to 10^7 cells/ml by using the RPMI1640 culture medium supplemented with 20% FCS, to which 10 μg/ml of phytohemagglutinin (PHA) was added as mitogen. […] After termination of culture, the supernatant was collected and used as the culture supernatant of PHA-stimulated mouse spleen cells.
The IL-2 activity in the culture supernatant of PHA-stimulated mouse spleen cells was assayed as follows:
IL-2 dependent mouse cell line CTLL-2 cells were suspended in the RPMI1640 culture medium supplemented with 30% FCS to the concentration of 2×10^5 cells/ml. One hundred μl of the cell suspension and 100 μl of the two-fold serial dilution of the culture supernatant of PHA-stimulated mouse spleen cells were added to a 96-well flat-bottomed microtest plate. […] The IL-2 activity is expressed in U/ml as the dilution at which the absorbancy measured by MTT method was 50% of the maximum.

[5] = cytotoxicity to cultured tumor cell line MOLT4; format: cell-based, human; settings: human, molt4 cells, read-out: Suppression
Procedure: as §1, §2

MOLT4 = test: cytotoxicity to cultured tumor cell line MOLT4; format: cell-based, human
Procedure: as §1, §2

[6] = system: allo-reactive cytotoxic T cell (EL4 target cells); test: suppression of induction of allo-reactive cytotoxic T cell in mouse allogenic mixed lymphocyte culture (MLC), 51Cr release; format: cell-based
Procedure: The target cells used were leukemia cells EL4 from the syngenic (H-2^b) C57BL/6 mouse as used for preparation of the stimulator cells. By incubating 10^6 EL4 cells in the presence of 370 KBq of Na2^51 CrO4 at 37° C. for 1 hour, ^51 Cr was incorporated into the cytoplasm. The cells were washed, adjusted to the concentration of 10^4 cells/ml and used as the target cells.
For the assay of the cytotoxic activity, 100 μl of the effector cell suspension and 100 μl of the target cell suspension were added to a 96-well flat-bottomed microculture plate, and cultured at 37° C. for 4 hours. The amount of ^51 Cr released into the supernatant was determined and the cytotoxic activity was calculated by the following formula. [formula]
The activity of the cytotoxic T cell is expressed by LU (lytic unit) per 10^6 effector cells.

CCCCCCCCCCCCC/C=C/C[C@@H](O)[C@H](O)[C@@](N)(CO)C(=O)O [Example 5]
cytotoxicity at 72 h ([1]; 0.1 μg/ml): 2.2% | cytotoxicity at 72 h ([1]; 1 μg/ml): 4% | cytotoxicity at 72 h ([1]; 10 μg/ml): 4.7% | Absorbancy (K562; 0.1 μg/ml): 1.111 ± 0.037 | Absorbancy (K562; 1 μg/ml): 1.090 ± 0.044 | Absorbancy (K562; 10 μg/ml): 1.083 ± 0.033 | cytotoxicity at 72 h ([2]; 0.1 μg/ml): 0% | cytotoxicity at 72 h ([2]; 1 μg/ml): 5% | cytotoxicity at 72 h ([2]; 10 μg/ml): 19.4% | Absorbancy (HL60; 0.1 μg/ml): 1.505 ± 0.035 | Absorbancy (HL60; 1 μg/ml): 1.415 ± 0.010 | Absorbancy (HL60; 10 μg/ml): 1.201 ± 0.061 | 3H-thymidine uptake ([3]; 0.00001 μg/ml, Donor A/Donor B): 14723 cpm | 3H-thymidine uptake ([3]; 0.0001 μg/ml, Donor A/Donor B): 8052 cpm | 3H-thymidine uptake ([3]; 0.0001 μg/ml, Donor C/Donor D): 15723 cpm | 3H-thymidine uptake ([3]; 0.001 μg/ml, Donor A/Donor B): 5363 cpm | 3H-thymidine uptake ([3]; 0.001 μg/ml, Donor C/Donor D): 7145 cpm | 3H-thymidine uptake ([3]; 0.01 μg/ml, Donor A/Donor B): 5042 cpm | 3H-thymidine uptake ([3]; 0.01 μg/ml, Donor C/Donor D): 5878 cpm | 3H-thymidine uptake ([3]; 0.1 μg/ml, Donor A/Donor B): 4660 cpm | 3H-thymidine uptake ([3]; 0.1 μg/ml, Donor C/Donor D): 4703 cpm | 3H-thymidine uptake ([3]; 1 μg/ml, Donor A/Donor B): 5545 cpm | 3H-thymidine uptake ([3]; 1 μg/ml, Donor C/Donor D): 5601 cpm | suppressive activity in human allogenic MLR (in words) ([3]; 1 to 0.0001 μg/ml): exhibited suppressive activity in human allogenic MLR in a concentration-dependent manner | inhibition at 10 pg/mL ([3]; Homo sapiens, Lymphocyte, 0.00001 μg/ml, Donor A/Donor B, read-out: Suppression): 0% | inhibition at 0.0001 µg/mL ([3]; Homo sapiens, Lymphocyte, 0.0001 μg/ml, Donor A/Donor B, read-out: Suppression): 34.4% | inhibition at 0.0001 µg/mL ([3]; Homo sapiens, Lymphocyte, 0.0001 μg/ml, Donor C/Donor D, read-out: Suppression): 22.1% | inhibition at 0.001 µg/mL ([3]; Homo sapiens, Lymphocyte, 0.001 μg/ml, Donor A/Donor B, read-out: Suppression): 58.5% | inhibition at 0.001 µg/mL ([3]; Homo sapiens, Lymphocyte, 0.001 μg/ml, Donor C/Donor D, read-out: Suppression): 65.8% | inhibition at 0.01 µg/mL ([3]; Homo sapiens, Lymphocyte, 0.01 μg/ml, Donor A/Donor B, read-out: Suppression): 61.4% | inhibition at 0.01 µg/mL ([3]; Homo sapiens, Lymphocyte, 0.01 μg/ml, Donor C/Donor D, read-out: Suppression): 72.3% | inhibition at 0.1 µg/mL ([3]; Homo sapiens, Lymphocyte, 0.1 μg/ml, Donor A/Donor B, read-out: Suppression): 64.8% | inhibition at 0.1 µg/mL ([3]; Homo sapiens, Lymphocyte, 0.1 μg/ml, Donor C/Donor D, read-out: Suppression): 78.3% | inhibition at 1 µg/mL ([3]; Homo sapiens, Lymphocyte, 1 μg/ml, Donor A/Donor B, read-out: Suppression): 56.9% | inhibition at 1 µg/mL ([3]; Homo sapiens, Lymphocyte, 1 μg/ml, Donor C/Donor D, read-out: Suppression): 73.7% | IL-2 activity ([4]; 0.001 μg/ml): 8.6 U/ml | IL-2 activity ([4]; 0.01 μg/ml): 4.6 U/ml | IL-2 activity ([4]; 0.1 μg/ml): 4.3 U/ml | IL-2 activity ([4]; 1 μg/ml): 2.7 U/ml | inhibition at 0.001 µg/mL ([4]; Mus musculus, 24 h, 0.001 μg/ml, read-out: Suppression): 36.3% | inhibition at 0.01 µg/mL ([4]; Mus musculus, 24 h, 0.01 μg/ml, read-out: Suppression): 65.9% | inhibition at 0.1 µg/mL ([4]; Mus musculus, 24 h, 0.1 μg/ml, read-out: Suppression): 68.1% | inhibition at 1 µg/mL ([4]; Mus musculus, 24 h, 1 μg/ml, read-out: Suppression): 80% | cytotoxicity at 72 h ([5]; 0.1 μg/ml): 10.7% | cytotoxicity at 72 h ([5]; 1 μg/ml): 12.2% | cytotoxicity at 72 h ([5]; 10 μg/ml): 16.2% | Absorbancy (MOLT4; 0.1 μg/ml): 1.031 ± 0.035 | Absorbancy (MOLT4; 1 μg/ml): 1.013 ± 0.013 | Absorbancy (MOLT4; 10 μg/ml): 0.967 ± 0.006 | Cytotoxic activity ([6]; 0.00001 μg/ml, C3H/HeN responder): 9.8 LU/10^6 | Cytotoxic activity ([6]; 0.0001 μg/ml, BALB/c responder): 9.2 LU/10^6 | Cytotoxic activity ([6]; 0.0001 μg/ml, C3H/HeN responder): 8.0 LU/10^6 | Cytotoxic activity ([6]; 0.001 μg/ml, BALB/c responder): 3.7 LU/10^6 | Cytotoxic activity ([6]; 0.001 μg/ml, C3H/HeN responder): 6.8 LU/10^6 | Cytotoxic activity ([6]; 0.01 μg/ml, BALB/c responder): 1.6 LU/10^6 | Cytotoxic activity ([6]; 0.01 μg/ml, C3H/HeN responder): < 0.5 LU/10^6 | Cytotoxic activity ([6]; 0.1 μg/ml, BALB/c responder): < 0.5 LU/10^6 | Cytotoxic activity ([6]; 0.1 μg/ml, C3H/HeN responder): < 0.5 LU/10^6 | Cytotoxic activity ([6]; 1 μg/ml, BALB/c responder): < 0.5 LU/10^6 | Cytotoxic activity ([6]; 1 μg/ml, C3H/HeN responder): < 0.5 LU/10^6 | inhibition at 10 pg/mL ([6]; Mus musculus, T-cell, 144 h, 0.00001 μg/ml, C3H/HeN responder): 35.4% | inhibition at 0.0001 µg/mL ([6]; Mus musculus, T-cell, 144 h, 0.0001 μg/ml, BALB/c responder): 34.1% | inhibition at 0.0001 µg/mL ([6]; Mus musculus, T-cell, 144 h, 0.0001 μg/ml, C3H/HeN responder): 47.5% | inhibition at 0.001 µg/mL ([6]; Mus musculus, T-cell, 144 h, 0.001 μg/ml, C3H/HeN responder): 54.2% | inhibition at 0.01 µg/mL ([6]; Mus musculus, T-cell, 144 h, 0.01 μg/ml, C3H/HeN responder): > 95% | inhibition at 0.1 µg/mL ([6]; Mus musculus, T-cell, 144 h, 0.1 μg/ml, C3H/HeN responder): > 95% | inhibition at 1 µg/mL ([6]; Mus musculus, T-cell, 144 h, 1 μg/ml, C3H/HeN responder): > 95% | inhibition at 0.001 µg/mL ([6]; Mus musculus, T-cell, 144 h, 0.001 μg/ml, BALB/c responder): 73.2% | inhibition at 0.01 µg/mL ([6]; Mus musculus, T-cell, 144 h, 0.01 μg/ml, BALB/c responder): 88.4% | inhibition at 0.1 µg/mL ([6]; Mus musculus, T-cell, 144 h, 0.1 μg/ml, BALB/c responder): > 95% | inhibition at 1 µg/mL ([6]; Mus musculus, T-cell, 144 h, 1 μg/ml, BALB/c responder): > 95% | induction of the allo-reactive cytotoxic T cell (in words), BALB/c responder ([6]; Table 3A): markedly inhibited | induction of the allo-reactive cytotoxic T cell (in words), C3H/HeN responder ([6]; Table 3B): suppressed
